# PubChem BioAssay (NCI)
#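 Exposure lasted 48 hours, with cells grown in 96-well plates and compounds tested at five concentrations. The concentration for 50% growth inhibition is given as GI50. TGI is the concentration that stops growth completely.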
# What was measured:
# Experiment in all cases: growth of human tumour cells (NCI), 48 h
# SF-295 CNS = test system: SF-295 CNS
# K-562 leukemia = test system: K-562 leukemia
# OVCAR-4 ovarian = test system: OVCAR-4 ovarian
# SNB-75 CNS = test system: SNB-75 CNS
# NCI-H522 lung = test system: NCI-H522 lung
# HOP-62 NSCLC = test system: HOP-62 NSCLC
# T-47D breast = test system: T-47D breast
# CAKI-1 renal = test system: CAKI-1 renal
# HS 578T breast = test system: HS 578T breast
# HOP-92 NSCLC = test system: HOP-92 NSCLC
# SNB-19 CNS = test system: SNB-19 CNS
# OVCAR-8 ovarian = test system: OVCAR-8 ovarian
# SN12C renal = test system: SN12C renal
# M14 melanoma = test system: M14 melanoma
# UACC-257 melanoma = test system: UACC-257 melanoma
# OVCAR-5 ovarian = test system: OVCAR-5 ovarian
# PC-3 prostate = test system: PC-3 prostate
# SR leukemia = test system: SR leukemia
# LOX IMVI melanoma = test system: LOX IMVI melanoma
# A498 renal = test system: A498 renal
# RXF 393 renal = test system: RXF 393 renal
# UO-31 renal = test system: UO-31 renal
# A549 NSCLC = test system: A549 NSCLC
# NCI-H23 lung = test system: NCI-H23 lung
# MCF7 breast = test system: MCF7 breast
# EKVX NSCLC = test system: EKVX NSCLC
# NCI-H226 lung = test system: NCI-H226 lung
# HT29 colon = test system: HT29 colon
# HCT-15 colon = test system: HCT-15 colon
# COLO 205 colon = test system: COLO 205 colon
# MDA-MB-435 = test system: MDA-MB-435
# SK-MEL-2 melanoma = test system: SK-MEL-2 melanoma
# MDA-MB-468 breast = test system: MDA-MB-468 breast
# HCT-116 colon = test system: HCT-116 colon
# TK-10 renal = test system: TK-10 renal
# MALME-3M melanoma = test system: MALME-3M melanoma
# UACC-62 melanoma = test system: UACC-62 melanoma
# SF-268 CNS = test system: SF-268 CNS
# NCI/ADR-RES ovarian = test system: NCI/ADR-RES ovarian
# DU-145 prostate = test system: DU-145 prostate
# KM12 colon = test system: KM12 colon
# ACHN renal = test system: ACHN renal
# U251 CNS = test system: U251 CNS
# SK-MEL-28 melanoma = test system: SK-MEL-28 melanoma
# 786-0 renal = test system: 786-0 renal
# MDA-MB-231 breast = test system: MDA-MB-231 breast
# SW-620 colon = test system: SW-620 colon
# HCC-2998 colon = test system: HCC-2998 colon
# CCRF-CEM leukemia = test system: CCRF-CEM leukemia
# SK-OV-3 ovarian = test system: SK-OV-3 ovarian
# HL-60(TB) leukemia = test system: HL-60(TB) leukemia
# SK-MEL-5 melanoma = test system: SK-MEL-5 melanoma
# IGROV1 ovarian = test system: IGROV1 ovarian
# MOLT-4 leukemia = test system: MOLT-4 leukemia
# BT-549 breast = test system: BT-549 breast
# NCI-H460 lung = test system: NCI-H460 lung
# OVCAR-3 ovarian = test system: OVCAR-3 ovarian
# SF-539 CNS = test system: SF-539 CNS
# RPMI-8226 leukemia = test system: RPMI-8226 leukemia
structure (smiles),measurement,setting,value
Cn1cc(-c2cc(N)n3nc(-c4c[nH]c5ccccc45)cc3n2)c2ccccc21,GI50,SF-295 CNS,1.78 µM
same,TGI,SF-295 CNS,3.4 µM
same,GI50,K-562 leukemia,2.34 µM
same,TGI,K-562 leukemia,6.81 µM
same,GI50,OVCAR-4 ovarian,3.26 µM
same,TGI,OVCAR-4 ovarian,14.7 µM
same,GI50,SNB-75 CNS,7.65 µM
same,TGI,SNB-75 CNS,21.3 µM
same,GI50,NCI-H522 lung,1.69 µM
same,TGI,NCI-H522 lung,3.33 µM
same,GI50,HOP-62 NSCLC,3.09 µM
same,TGI,HOP-62 NSCLC,10.5 µM
same,GI50,T-47D breast,2.02 µM
same,TGI,T-47D breast,4.58 µM
same,GI50,CAKI-1 renal,1.91 µM
same,TGI,CAKI-1 renal,4.48 µM
same,GI50,HS 578T breast,5.53 µM
same,TGI,HS 578T breast,45.4 µM
same,GI50,HOP-92 NSCLC,2.29 µM
same,TGI,HOP-92 NSCLC,5.47 µM
same,GI50,SNB-19 CNS,3.14 µM
same,TGI,SNB-19 CNS,11.4 µM
same,GI50,OVCAR-8 ovarian,2.66 µM
same,TGI,OVCAR-8 ovarian,8.25 µM
same,GI50,SN12C renal,3.47 µM
same,TGI,SN12C renal,12.4 µM
same,GI50,M14 melanoma,1.79 µM
same,TGI,M14 melanoma,3.66 µM
same,GI50,UACC-257 melanoma,1.84 µM
same,TGI,UACC-257 melanoma,3.45 µM
same,GI50,OVCAR-5 ovarian,2.05 µM
same,TGI,OVCAR-5 ovarian,4.64 µM
same,GI50,PC-3 prostate,3.38 µM
same,TGI,PC-3 prostate,14.4 µM
same,GI50,SR leukemia,2.01 µM
same,TGI,SR leukemia,39 µM
same,GI50,LOX IMVI melanoma,1.81 µM
same,TGI,LOX IMVI melanoma,3.25 µM
same,GI50,A498 renal,7.63 µM
same,TGI,A498 renal,20.8 µM
same,GI50,RXF 393 renal,1.69 µM
same,TGI,RXF 393 renal,3.96 µM
same,GI50,UO-31 renal,1.64 µM
same,TGI,UO-31 renal,3.28 µM
same,GI50,A549 NSCLC,3.01 µM
same,TGI,A549 NSCLC,12 µM
same,GI50,NCI-H23 lung,2.36 µM
same,TGI,NCI-H23 lung,5.83 µM
same,GI50,MCF7 breast,1.81 µM
same,TGI,MCF7 breast,3.78 µM
same,GI50,EKVX NSCLC,2.48 µM
same,TGI,EKVX NSCLC,7.15 µM
same,GI50,NCI-H226 lung,11.4 µM
same,TGI,NCI-H226 lung,37.2 µM
same,GI50,HT29 colon,1.69 µM
same,TGI,HT29 colon,3.23 µM
same,GI50,HCT-15 colon,1.64 µM
same,TGI,HCT-15 colon,3.3 µM
same,GI50,COLO 205 colon,1.72 µM
same,TGI,COLO 205 colon,3.35 µM
same,GI50,MDA-MB-435,1.92 µM
same,TGI,MDA-MB-435,3.92 µM
same,GI50,SK-MEL-2 melanoma,4.72 µM
same,TGI,SK-MEL-2 melanoma,17.2 µM
same,GI50,MDA-MB-468 breast,1.63 µM
same,TGI,MDA-MB-468 breast,3.11 µM
same,GI50,HCT-116 colon,1.9 µM
same,TGI,HCT-116 colon,3.54 µM
same,GI50,TK-10 renal,2.15 µM
same,TGI,TK-10 renal,7.17 µM
same,GI50,MALME-3M melanoma,1.56 µM
same,TGI,MALME-3M melanoma,2.9 µM
same,GI50,UACC-62 melanoma,1.74 µM
same,TGI,UACC-62 melanoma,3.17 µM
same,GI50,SF-268 CNS,4.25 µM
same,TGI,SF-268 CNS,20.6 µM
same,GI50,NCI/ADR-RES ovarian,2.65 µM
same,TGI,NCI/ADR-RES ovarian,7.75 µM
same,GI50,DU-145 prostate,3.61 µM
same,TGI,DU-145 prostate,13.5 µM
same,GI50,KM12 colon,1.94 µM
same,TGI,KM12 colon,3.99 µM
same,GI50,ACHN renal,2.22 µM
same,TGI,ACHN renal,4.85 µM
same,GI50,U251 CNS,2.04 µM
same,TGI,U251 CNS,4.04 µM
same,GI50,SK-MEL-28 melanoma,1.66 µM
same,TGI,SK-MEL-28 melanoma,3.03 µM
same,GI50,786-0 renal,1.68 µM
same,TGI,786-0 renal,3.26 µM
same,GI50,MDA-MB-231 breast,1.9 µM
same,TGI,MDA-MB-231 breast,3.47 µM
same,GI50,SW-620 colon,1.77 µM
same,TGI,SW-620 colon,3.45 µM
same,GI50,HCC-2998 colon,1.79 µM
same,TGI,HCC-2998 colon,3.34 µM
same,GI50,CCRF-CEM leukemia,2.77 µM
same,TGI,CCRF-CEM leukemia,24 µM
same,GI50,SK-OV-3 ovarian,11.8 µM
same,TGI,SK-OV-3 ovarian,25.6 µM
same,GI50,HL-60(TB) leukemia,1.99 µM
same,TGI,HL-60(TB) leukemia,5.08 µM
same,GI50,SK-MEL-5 melanoma,1.77 µM
same,TGI,SK-MEL-5 melanoma,3.43 µM
same,GI50,IGROV1 ovarian,2.64 µM
same,TGI,IGROV1 ovarian,6.84 µM
same,GI50,MOLT-4 leukemia,2.5 µM
same,TGI,MOLT-4 leukemia,8.28 µM
same,GI50,BT-549 breast,14.8 µM
same,TGI,BT-549 breast,29.8 µM
same,GI50,NCI-H460 lung,1.95 µM
same,TGI,NCI-H460 lung,3.83 µM
same,GI50,OVCAR-3 ovarian,2.1 µM
same,TGI,OVCAR-3 ovarian,4.59 µM
same,GI50,SF-539 CNS,1.81 µM
same,TGI,SF-539 CNS,3.21 µM
same,GI50,RPMI-8226 leukemia,2.51 µM
same,TGI,RPMI-8226 leukemia,6.95 µM
